We go through three molecules from patent publication US10064891B2, “Assembly of micelle aggregates of surfactant micelles and silver nanoparticles and use as antibacterial agent” (Otago Innovation Limited, priority 2013, dated 2018).

The nature of data set [1]: Determination of cmc / cmceff by electrical conductivity. Format: physicochemical. To be noted: H2O, 25° C.; for cmc of pure surfactant (cmceff at 0 mM AgNO3): no AgNO3. Here is the method:
Electrical conductivity measurements (mS cm^−1) were performed on five SDS solutions over a range of concentrations, with each solution containing a different amount of added AgNO3. […] Standard deviations for each data point are <0.014 mS cm^−1 in all cases. Closed symbols represent the data points used for the linear regression analysis below the cmc, and the open symbols for the analysis above the cmc. For each sample, regardless of the electrolyte content, as the SDS concentration was varied, an inflection point in the electrical conductivity was observed, indicating the cmc. A linear regression analysis of the conductivity data of each of the five samples was performed above and below the inflection point. In all cases, no significant deviations from linearity were observed over the concentration ranges. A dashed line has been added to one data set to indicate the point of intersection of the two corresponding linear equations, thus indicating the cmc. The cmc of pure SDS in H2O in the absence of AgNO3 was determined to be 8.1 mM. The curve represents a critical ‘cmc boundary’ for the SDS/AgNO3 system, i.e. the cmceff of SDS at a given AgNO3 concentration between 0-10 mM.
Following the procedure detailed in Example 1, electrical conductivity measurements were performed on sodium dodecylbenzenesulfonate (SDBS), sodium lauryl ether sulfate (SLES) and ammonium lauryl sulfate (ALS) solutions containing different amounts of added AgNO3 in order to determine the cmceff of each surfactant. […] Linear regression analysis was performed as described in Example 1. The cmc of pure SDBS, SLES and ALS at 25° C. was determined to be 1.4, 3.1 and 6.7 mM, respectively.

The conditions of data set [2]: absence of any salts; cited from earlier work.

Take `CCCCCCCCCCCCOS(=O)(=O)O.N` [ALS, ammonium lauryl sulfate]: in data set [1] ([AgNO3] 0.6 mM), the Cmceff is reported as 4.6 mM. Besides, the “cmc of pure surfactant (cmceff at 0 mM AgNO3)” value (“cmc of pure surfactant” below) in data set [1] worked out at 6.7 mM.

In the case of `CCCCCCCCCCCCOS(=O)(=O)[O-].[Na+]` [SDS, sodium dodecyl sulfate], the “cmc of pure surfactant” value in data set [1] was 8.1 mM. Also, in data set [2], the “cmc of pure SDS in water (known)” value is 8.0 to 8.3 mM.

On to sodium lauryl ether sulfate [SLES], for which the Cmceff worked out at 2.1 mM in data set [1] ([AgNO3] 0.6 mM) and 1.9 mM in data set [1] ([AgNO3] 2.9 mM). The “cmc of pure surfactant” value in data set [1] is 3.1 mM.
